Several values for one entry are separate records, joined by “and”; a condition that tells them apart may be missing. Equal values may be shown once.
Assay: Phase I safety and tolerability of OMO-1 monotherapy, Module 1 Part A dose escalation (drug-related TEAEs, DLTs, RP2D)
Conditions: for DLTs: first cycle
Source text: This study was part of a modular, first-in-patient, openlabel multicenter study of OMO-1, administered orally, mono-therapy, and in combination with EGFR-TKI, in patients with locally advanced, unresectable, or metastatic solid malignancies (study protocol can be). […] Module 1 (OMO-1 monotherapy) consisted of Part A (dose escalation) and Part B (expansion cohorts). Part A assessed the safety and tolerability of ascending doses of OMO-1 given as monotherapy in unselected patients with locally advanced, unresectable, or metastatic malignancies and determined the recommended phase 2 dose (RP2D). Part B assessed the preliminary efficacy of the RP2D of OMO-1 in patients with METex14-positive NSCLC (cohort 1) and patients with MET amplified NSCLC or patients with other MET positive solid tumors, either METex14 or MET amplification (MET basket; cohort 2). The MET status of the tumor was assessed locally by site-specific guidelines. For MET exon 14 skipping mutations next generation sequencing (NGS) was used and for MET amplifications either NGS or fluorescence in situ hybridization (Supplementary 1). Prior treatment with a MET inhibitor was an exclusion criterion.
OMO-1 was administered orally, twice daily (BID) with a minimal interval of 4-5 h with food in a continuous 21 day/cycle regimen until clinical progression or emergence of significant toxicity. The starting dose was 100 mg BID. The dose was escalated sequentially in cohorts of at least 3 patients using a standard 3 + 3 dose escalation design. […] During the monotherapy dose escalation Module 1 Part A, blood samples were collected for PK analysis throughout the study as per protocol (S1).
The dose-limiting toxicity (DLT) evaluation period was within the first cycle of treatment; although all events beyond this point were also reviewed at the time of dose escalation to ensure an OLED was chosen as RP2D.
Safety analyses were descriptive. With respect to primary objectives and endpoints, no specific hypotheses were tested statistically. The primary focus was on determining the safety profile and RP2D, and the identification of a range of biologically active doses and PK of OMO-1 in patients with cancer. Safety, PK, and PD biomarker data were reviewed on an ongoing basis in line with the cohort progression criteria by the Safety Review Committee (SRC).

Structure (SMILES): FC(F)(c1ccc2ncccc2c1)c1nnc2ccc(-c3ccncc3)nn12 [OMO-1]
- increased blood creatinine, drug-related TEAE (100 mg BID cohort): no events
- Fatigue, proportion of patients (100 mg BID cohort, 1 patient): 20.0%
- Decreased appetite, Drug-related TEAEs, All grades (100 mg BID n = 5): 1 (20%) n (%)
- Dizziness, Drug-related TEAEs, All grades (100 mg BID n = 5): 1 (20%) n (%)
- Fatigue, Drug-related TEAEs, All grades (100 mg BID n = 5): 1 (20%) n (%)
- Headache, Drug-related TEAEs, All grades (100 mg BID n = 5): 1 (20%) n (%)
- Nausea, Drug-related TEAEs, All grades (100 mg BID n = 5): 2 (40%) n (%)
- Nausea, Drug-related TEAEs, Grade ≥3 (100 mg BID n = 5): 1 (20%) n (%)
- Nausea, Drug-related TEAEs, SAE (100 mg BID n = 5): 1 (20%) n (%)
- Total n with AE, Drug-related TEAEs, All grades (100 mg BID n = 5): 5 (100%) n (%)
- Total n with AE, Drug-related TEAEs, Grade ≥3 (100 mg BID n = 5): 2 (40%) n (%)
- Total n with AE, Drug-related TEAEs, SAE (100 mg BID n = 5): 2 (40%) n (%)
- Vomiting, Drug-related TEAEs, All grades (100 mg BID n = 5): 1 (20%) n (%)
- Vomiting, Drug-related TEAEs, Grade ≥3 (100 mg BID n = 5): 1 (20%) n (%)
- Vomiting, Drug-related TEAEs, SAE (100 mg BID n = 5): 1 (20%) n (%)
- Anemia, Drug-related TEAEs, All grades (200 mg BID n = 4): 2 (50%) n (%)
- Anemia, Drug-related TEAEs, Grade ≥3 (200 mg BID n = 4): 1 (25%) n (%)
- Blood creatinine ↑, Drug-related TEAEs, All grades (200 mg BID n = 4): 3 (75%) n (%)
- Chills/ influenza like symptoms, Drug-related TEAEs, All grades (200 mg BID n = 4): 1 (25%) n (%)
- Chills/ influenza like symptoms, Drug-related TEAEs, SAE (200 mg BID n = 4): 1 (25%) n (%)
- Decreased appetite, Drug-related TEAEs, All grades (200 mg BID n = 4): 1 (25%) n (%)
- Diarrhoea, Drug-related TEAEs, All grades (200 mg BID n = 4): 2 (50%) n (%)
- Dizziness, Drug-related TEAEs, All grades (200 mg BID n = 4): 1 (25%) n (%)
- Fatigue, Drug-related TEAEs, All grades (200 mg BID n = 4): 1 (25%) n (%)
- Headache, Drug-related TEAEs, All grades (200 mg BID n = 4): 3 (75%) n (%)
- Nausea, Drug-related TEAEs, All grades (200 mg BID n = 4): 3 (75%) n (%)
- Total n with AE, Drug-related TEAEs, All grades (200 mg BID n = 4): 4 (100%) n (%)
- Total n with AE, Drug-related TEAEs, Grade ≥3 (200 mg BID n = 4): 1 (25%) n (%)
- Total n with AE, Drug-related TEAEs, SAE (200 mg BID n = 4): 1 (25%) n (%)
- Vomiting, Drug-related TEAEs, All grades (200 mg BID n = 4): 2 (50%) n (%)
- Vomiting, Drug-related TEAEs, Grade ≥3 (200 mg BID n = 4): 1 (25%) n (%)
- diarrhea, all grades (250 mg BD): 14%
- nausea, all grades (250 mg BD): 57%
- vomiting, all grades (250 mg BD): 43%
- Anemia, Drug-related TEAEs, All grades (250 mg BID n = 7): 1 (14%) n (%)
- Blood creatinine ↑, Drug-related TEAEs, All grades (250 mg BID n = 7): 3 (43%) n (%)
- Blood creatinine ↑, Drug-related TEAEs, Grade ≥3 (250 mg BID n = 7): 1 (14%) n (%)
- Decreased appetite, Drug-related TEAEs, All grades (250 mg BID n = 7): 1 (14%) n (%)
- Diarrhoea, Drug-related TEAEs, All grades (250 mg BID n = 7): 1 (14%) n (%)
- Dizziness, Drug-related TEAEs, All grades (250 mg BID n = 7): 1 (14%) n (%)
- Fatigue, Drug-related TEAEs, All grades (250 mg BID n = 7): 3 (43%) n (%)
- Fatigue, Drug-related TEAEs, Grade ≥3 (250 mg BID n = 7): 1 (14%) n (%)
- Nausea, Drug-related TEAEs, All grades (250 mg BID n = 7): 4 (57%) n (%)
- Nausea, Drug-related TEAEs, SAE (250 mg BID n = 7): 1 (14%) n (%)
- Tachycardia, Drug-related TEAEs, All grades (250 mg BID n = 7): 1 (14%) n (%)
- Total n with AE, Drug-related TEAEs, All grades (250 mg BID n = 7): 7 (100%) n (%)
- Total n with AE, Drug-related TEAEs, SAE (250 mg BID n = 7): 1 (14%) n (%)
- Vomiting, Drug-related TEAEs, All grades (250 mg BID n = 7): 3 (43%) n (%)
- patients discontinued due to related toxicity (350 mg BID and 400 mg BID cohort): 4/8
- increased blood creatinine, drug-related TEAE (350 mg BID cohort): no events
- Chills/ influenza like symptoms, Drug-related TEAEs, All grades (350 mg BID n = 5): 1 (20%) n (%)
- Decreased appetite, Drug-related TEAEs, All grades (350 mg BID n = 5): 1 (20%) n (%)
- Dizziness, Drug-related TEAEs, All grades (350 mg BID n = 5): 1 (20%) n (%)
- Fatigue, Drug-related TEAEs, All grades (350 mg BID n = 5): 3 (60%) n (%)
- Headache, Drug-related TEAEs, All grades (350 mg BID n = 5): 1 (20%) n (%)
- Nausea, Drug-related TEAEs, All grades (350 mg BID n = 5): 1 (20%) n (%)
- Tachycardia, Drug-related TEAEs, All grades (350 mg BID n = 5): 1 (20%) n (%)
- Total n with AE, Drug-related TEAEs, All grades (350 mg BID n = 5): 4 (80%) n (%)
- Total n with AE, Drug-related TEAEs, SAE (350 mg BID n = 5): 1 (20%) n (%)
- Vomiting, Drug-related TEAEs, All grades (350 mg BID n = 5): 3 (60%) n (%)
- Vomiting, Drug-related TEAEs, SAE (350 mg BID n = 5): 1 (20%) n (%)
- Anemia, Drug-related TEAEs, All grades (400 mg BID n = 3): 1 (33%) n (%)
- Blood bilirubin ↑, Drug-related TEAEs, All grades (400 mg BID n = 3): 1 n (%)
- Blood bilirubin ↑, Drug-related TEAEs, SAE (400 mg BID n = 3): 1 (33%) n (%)
- Blood creatinine ↑, Drug-related TEAEs, All grades (400 mg BID n = 3): 3 (100%) n (%)
- Blood creatinine ↑, Drug-related TEAEs, SAE (400 mg BID n = 3): 1 (33%) n (%)
- Chills/ influenza like symptoms, Drug-related TEAEs, All grades (400 mg BID n = 3): 1 (33%) n (%)
- Chills/ influenza like symptoms, Drug-related TEAEs, Grade ≥3 (400 mg BID n = 3): 1 (33%) n (%)
- Chills/ influenza like symptoms, Drug-related TEAEs, SAE (400 mg BID n = 3): 1 (33%) n (%)
- Decreased appetite, Drug-related TEAEs, All grades (400 mg BID n = 3): 0 n (%)
- Diarrhoea, Drug-related TEAEs, All grades (400 mg BID n = 3): 1 (33%) n (%)
- Diarrhoea, Drug-related TEAEs, SAE (400 mg BID n = 3): 1 (33%) n (%)
- Fatigue, Drug-related TEAEs, All grades (400 mg BID n = 3): 2 (67%) n (%)
- Nausea, Drug-related TEAEs, All grades (400 mg BID n = 3): 1 (33%) n (%)
- Nausea, Drug-related TEAEs, SAE (400 mg BID n = 3): 1 (33%) n (%)
- Neutrophil count↓, Drug-related TEAEs, All grades (400 mg BID n = 3): 1 n (%)
- Neutrophil count↓, Drug-related TEAEs, SAE (400 mg BID n = 3): 1 (33%) n (%)
- Tachycardia, Drug-related TEAEs, All grades (400 mg BID n = 3): 1 (33%) n (%)
- Total n with AE, Drug-related TEAEs, All grades (400 mg BID n = 3): 3 (100%) n (%)
- Total n with AE, Drug-related TEAEs, Grade ≥3 (400 mg BID n = 3): 1 (33%) n (%)
- Total n with AE, Drug-related TEAEs, SAE (400 mg BID n = 3): 2 (67%) n (%)
- patients discontinued due to related toxicity (100, 200, and 250 mg BID): 25% (4/16)
- Anemia, Drug-related TEAEs, All grades (All doses n = 24): 4 (17%) n (%)
- Anemia, Drug-related TEAEs, Grade ≥3 (All doses n = 24): 1 (4%) n (%)
- Blood bilirubin ↑, Drug-related TEAEs, All grades (All doses n = 24): 1 (4%) n (%)
- Blood bilirubin ↑, Drug-related TEAEs, SAE (All doses n = 24): 1 (4%) n (%)
- Blood creatinine ↑, Drug-related TEAEs, All grades (All doses n = 24): 9 (38%) n (%)
- Blood creatinine ↑, Drug-related TEAEs, Grade ≥3 (All doses n = 24): 1 (4%) n (%)
- Blood creatinine ↑, Drug-related TEAEs, SAE (All doses n = 24): 1 (4%) n (%)
- Chills/ influenza like symptoms, Drug-related TEAEs, All grades (All doses n = 24): 3 (13%) n (%)
- Chills/ influenza like symptoms, Drug-related TEAEs, Grade ≥3 (All doses n = 24): 1 (4%) n (%)
- Chills/ influenza like symptoms, Drug-related TEAEs, SAE (All doses n = 24): 2 (8%) n (%)
- Decreased appetite, Drug-related TEAEs, All grades (All doses n = 24): 4 (17%) n (%)
- Diarrhoea, Drug-related TEAEs, SAE (All doses n = 24): 1 (4%) n (%)
- Dizziness, Drug-related TEAEs, All grades (All doses n = 24): 4 (17%) n (%)
- Fatigue, Drug-related TEAEs, All grades (All doses n = 24): 10 (42%) n (%)
- Fatigue, Drug-related TEAEs, Grade ≥3 (All doses n = 24): 1 (4%) n (%)
- Headache, Drug-related TEAEs, All grades (All doses n = 24): 5 (21%) n (%)
- Nausea, Drug-related TEAEs, Grade ≥3 (All doses n = 24): 1 (4%) n (%)
- Nausea, Drug-related TEAEs, SAE (All doses n = 24): 3 n (%) and 3 (13%) n (%)
- Neutrophil count↓, Drug-related TEAEs, All grades (All doses n = 24): 1 (4%) n (%)
- Neutrophil count↓, Drug-related TEAEs, SAE (All doses n = 24): 1 (4%) n (%)
- Tachycardia, Drug-related TEAEs, All grades (All doses n = 24): 3 (13%) n (%)
- Total n with AE, Drug-related TEAEs, All grades (All doses n = 24): 23 (96%) n (%)
- Total n with AE, Drug-related TEAEs, Grade ≥3 (All doses n = 24): 6 (25%) n (%)
- Total n with AE, Drug-related TEAEs, SAE (All doses n = 24): 7 n (%) and 7 (29%) n (%)
- Vomiting, Drug-related TEAEs, All grades (All doses n = 24): 9 (38%) n (%)
- Vomiting, Drug-related TEAEs, Grade ≥3 (All doses n = 24): 2 (8%) n (%)
- Vomiting, Drug-related TEAEs, SAE (All doses n = 24): 2 n (%) and 2 (8%) n (%)
- grade 5 (fatal) TEAEs (Module 1 Part A): No grade 5 (fatal) TEAEs
- number of drug-related SAEs (Module 1 Part A, all doses): 11
- number of drug-related TEAE recorded (Module 1 Part A, all doses): 129
- patients discontinued due to toxicity related to OMO-1, in total (Module 1 Part A, all doses): 8 patients
- patients with drug-related TEAE (Module 1 Part A, all doses): 23 out of 24
- DLTs (cohort 1 (100 mg BID)): no DLTs
- DLTs (cohort 2 (200 mg BID)): no DLTs
- number of TEAEs that led to OMO-1 treatment discontinuation (cohort 3 (400 mg BID)): 6 TEAEs
- patients requiring a dose reduction due to treatment-related toxicity (cohort 3 (400 mg BID)): 2 out of 3
- DLTs (cohort 3 (400 mg BID)): no DLTs
- DLTs (cohort 4 (250 mg BID)): No DLTs
- peripheral edema related to OMO-1 (in vivo): No reports
- recommended phase 2 dose (RP2D) (oral monotherapy, 3 + 3 dose escalation, continuous 21 day/cycle): 250 mg BID

From article PMC10712729, “A Phase I Trial of the Dual MET Kinase/OCT-2 Inhibitor OMO-1 in Metastatic Solid Malignancies Including MET Exon 14 Mutated Lung Cancer” (The Oncologist, 2023)
